Measurements taken from patent publication US6500842B1, “8-hydroxy-7-substituted quinolines as anti-viral agents” (Pharmacia & Upjohn Company, priority 1996, dated 2002).
Several values for one entry are separate records, joined by “and”; a condition that tells them apart may be missing. Equal entries are not always repeated. Where two headings read alike, the source gives them in different places.

Biological target: T1, HCMV polymerase (Human cytomegalovirus, UniProt P08546)
T1 construct: made in house; host or cells: recombinant baculovirus-infected SF-9 cells
Experiment: HCMV polymerase assay (scintillation proximity assay)
Format: biochemical
Method: The HCMV polymerase assay is performed using a scintillation proximity assay (SPA) as described in several references, such as N. D. Cook, et al., Pharmaceutical Manufacturing International, pages 49-53 (1992); K. Takeuchi, Laboratory Practice, September issue (1992); U.S. Pat. No. 4,568,649 (1986); which are incorporated by reference herein. Reactions are performed in 96-well plates. The assay is conducted in 100 μl volume with 5.4 mM HEPES (pH 7.5), 11.7 mM KCl, 4.5 mM MgCl2, 0.36 mg/ml BSA, and 90 nM ^3H-dTTP. Assays are run with and without CHAPS, (3-[(3-Cholamidopropyl)-dimethylammonio]-1-propane-sulfonate) at a final concentration of 2 mM. HCMV is diluted in enzyme dilution buffer containing 50% glycerol, 250 mM NaCl, 10 mM HEPES (pH 7.5), 100 pg/ml BSA, and 0.01% sodium azide. The HCMV polymerase, which is expressed in recombinant baculovirus-infected SF-9 cells and purified according to literature procedures, is added at 10% (or 10 μl) of the final reaction volume, i.e., 100 μl. Compounds are diluted in 50% DMSO and 10 μl are added to each well. Control wells contain an equivalent concentration of DMSO. Unless noted otherwise, reactions are initiated via the addition of 6 nM biotinylated poly(dA)-oligo(dT) template/primer to reaction mixtures containing the enzyme, substrate, and compounds of interest. Plates are incubated in a 25° C. of 37° C. H2O bath and terminated via the addition of 40 μl/reaction of 0.5 M EDTA (pH 8) per well. Reactions are terminated within the time-frame during which substrate incorporation is linear and varied depending upon the enzyme and conditions used, i.e., 30 min. for HCMV polymerase. Ten μl of streptavidin-SPA beads (20 mg/ml in PBS/10% glycerol) are added following termination of the reaction. Plates are incubated 10 min. at 37° C., then equilibrated to room temperature, and counted on a Packard Topcount. Linear regressions are performed and IC50's are calculated using computer software. Results of the testing of compounds of the present invention in this assay are shown in Tables 1, 2, 5, 9, 10, 11, 13 (except for the last compound which was tested under modified conditions) and 14 below.

[1] = Table 11, read-out: CMV pol Assay IC50
[2] = Table 9, read-out: CMV pol Assay- IC50
[3] = Table 10, CMV pol Assay, read-out: IC50

T1 sequence (P08546 whole entry): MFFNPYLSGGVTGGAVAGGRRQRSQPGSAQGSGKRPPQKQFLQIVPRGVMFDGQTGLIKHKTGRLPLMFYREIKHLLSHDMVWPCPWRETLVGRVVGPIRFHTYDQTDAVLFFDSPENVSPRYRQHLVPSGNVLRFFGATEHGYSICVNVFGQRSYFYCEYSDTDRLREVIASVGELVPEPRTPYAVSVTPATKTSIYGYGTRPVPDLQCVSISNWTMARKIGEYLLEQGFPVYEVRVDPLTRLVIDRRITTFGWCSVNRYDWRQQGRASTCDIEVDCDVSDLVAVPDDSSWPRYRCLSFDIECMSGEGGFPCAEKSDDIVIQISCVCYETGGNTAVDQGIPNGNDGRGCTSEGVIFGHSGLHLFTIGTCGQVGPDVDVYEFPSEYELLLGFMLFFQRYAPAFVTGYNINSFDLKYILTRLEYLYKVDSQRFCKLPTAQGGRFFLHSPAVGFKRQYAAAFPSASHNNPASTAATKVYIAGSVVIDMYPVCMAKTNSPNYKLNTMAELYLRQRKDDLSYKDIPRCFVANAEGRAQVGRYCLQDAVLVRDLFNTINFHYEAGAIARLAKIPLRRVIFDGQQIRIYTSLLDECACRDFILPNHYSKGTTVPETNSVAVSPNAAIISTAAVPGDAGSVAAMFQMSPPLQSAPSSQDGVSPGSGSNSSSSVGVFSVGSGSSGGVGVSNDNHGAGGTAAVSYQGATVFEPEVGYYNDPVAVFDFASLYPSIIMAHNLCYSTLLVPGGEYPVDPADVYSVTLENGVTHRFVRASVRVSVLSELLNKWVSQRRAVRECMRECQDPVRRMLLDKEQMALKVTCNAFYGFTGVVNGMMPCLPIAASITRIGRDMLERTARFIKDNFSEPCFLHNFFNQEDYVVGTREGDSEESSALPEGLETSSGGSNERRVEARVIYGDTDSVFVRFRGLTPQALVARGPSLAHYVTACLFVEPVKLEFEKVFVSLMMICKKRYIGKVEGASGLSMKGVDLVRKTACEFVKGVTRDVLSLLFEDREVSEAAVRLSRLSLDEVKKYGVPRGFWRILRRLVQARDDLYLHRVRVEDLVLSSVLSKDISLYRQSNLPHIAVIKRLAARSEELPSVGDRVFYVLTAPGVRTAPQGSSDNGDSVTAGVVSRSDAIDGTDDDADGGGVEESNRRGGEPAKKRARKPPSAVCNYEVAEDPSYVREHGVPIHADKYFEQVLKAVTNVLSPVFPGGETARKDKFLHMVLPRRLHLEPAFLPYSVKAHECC

How did the IC50 [1] turn out when `O=C(Nc1nnc(NC(C(=O)O)c2ccc3c(c2)OCO3)s1)c1ccc2cccnc2c1O` (centres unmarked) was run?
The IC50 was 22.6 µM.

Which IC50 [2] does the source give for `O=C(NCc1cccc(Cl)c1)c1ccc2cccnc2c1O` here?
The IC50 was 8.7 µM.

For `O=C(Nc1cc([N+](=O)[O-])cc([N+](=O)[O-])c1)c1ccc2cccnc2c1O`, which IC50 [3] is on record?
Its IC50 is 7.1 µM.

`CC(C)(C)OC(=O)[C@H](Cc1ccc(O)cc1)NC(=O)c1ccc2cccnc2c1O` was tested. Which IC50 [2] did it give?
Its IC50 is 8.1 µM.

For `O=C(NCCSCc1c(Cl)cccc1Cl)c1ccc2cccnc2c1O`, which IC50 [2] is on record?
Its IC50 is 8.4 µM.

With `O=C(NCc1cccs1)c1ccc2cccnc2c1O` as the compound, how does the IC50 (Table 14, read-out: IC50) read?
Its IC50 is 34 µM.

For `O=C(NC(CO)C(O)c1ccccc1)c1ccc2cccnc2c1O` (centres unmarked), which IC50 (Table 14, read-out: IC50) is on record?
Its IC50 is 14 µM.

How did the IC50 [3] turn out when `O=C(Nc1cc(C(F)(F)F)cc(C(F)(F)F)c1)c1ccc2cccnc2c1O` was run?
The IC50 was 68.2 µM.

For `O=C(NCC(c1ccccc1)c1ccccc1)c1ccc2cccnc2c1O`, which IC50 [2] is on record?
Its IC50 is 0.9 µM.

How did the IC50 (Table 13, read-out: IC50) turn out when `Cc1ccc2ccc(C(=O)Nc3ccc(Cl)cc3)c(O)c2n1` was run?
Its IC50 is 7.6 µM.

How did the IC50 [2] turn out when `CCCCCCCCCCCNC(=O)c1ccc2cccnc2c1O` was run?
The IC50 was < 3.1 µM.

How did the IC50 [2] turn out when `CCCCCC(C)NC(=O)c1ccc2cccnc2c1O` (centres unmarked) was run?
Its IC50 is 7.9 µM.

For `O=C(Nc1ccc2cccc(O)c2n1)c1ccc2cccnc2c1O`, which IC50 [3] is on record?
The IC50 was 14.5 µM.

How did the IC50 [3] turn out when `N#Cc1ccc(NC(=O)c2ccc3cccnc3c2O)cc1` [drawing 210] was run?
The IC50 was > 100 µM.

Which IC50 [1] does the source give for `CC(C)(C)OC(=O)[C@H](Cc1c[nH]c2ccccc12)Nc1nnc(NC(=O)c2ccc3cccnc3c2O)s1` here?
The IC50 was < 3.1 µM.

Which IC50 [2] does the source give for `O=C(NCCc1ccc(O)cc1)c1ccc2cccnc2c1O` here?
Its IC50 is 20.1 µM.

How did the IC50 [1] turn out when `CC(C)(C)OC(=O)C[C@H](Nc1nnc(NC(=O)c2ccc3cccnc3c2O)s1)C(=O)OC(C)(C)C` was run?
Its IC50 is 24.2 µM.

Which IC50 [1] does the source give for `N#CC(Nc1nnc(NC(=O)c2ccc3cccnc3c2O)s1)c1ccc2c(c1)OCO2` (centres unmarked) here?
Its IC50 is 3.1 µM.

`O=C(NCCC(c1ccccc1)c1ccccc1)c1ccc2cccnc2c1O` was tested. Which IC50 [2] did it give?
Its IC50 is < 1.5 µM.

Which IC50 [2] does the source give for `O=C(NC1CCCc2ccccc21)c1ccc2cccnc2c1O` (centres unmarked) here?
Its IC50 is 7.6 µM.

`O=C(NCc1c(F)cccc1Cl)c1ccc2cccnc2c1O` was tested. Which IC50 (Table 14, read-out: IC50) did it give?
The IC50 was 30 µM.

For `CC1CCCC(NC(=O)c2ccc3cccnc3c2O)C1C` (centres unmarked), which IC50 [2] is on record?
Its IC50 is 8.4 µM.

For `O=C(NCCSCc1c(F)cccc1Cl)c1ccc2cccnc2c1O`, which IC50 [2] is on record?
Its IC50 is 9.6 µM.

With `COC(=O)[C@H](Cc1ccc(OCc2ccccc2)cc1)NC(=O)c1ccc2cccnc2c1O` as the compound, how does the IC50 [2] read?
Its IC50 is 4.9 µM.

How did the IC50 [1] turn out when `O=C(Nc1nnc(NCCc2ccccc2)s1)c1ccc2cccnc2c1O` was run?
The IC50 was 2.4 µM.

How did the IC50 (Table 14, read-out: IC50) turn out when `O=C(NCCOc1ccccc1)c1ccc2cccnc2c1O` was run?
The IC50 was 29 µM.

`Cc1noc(NS(=O)(=O)c2ccc(NC(=O)c3ccc4cccnc4c3O)cc2)c1C` was tested. Which IC50 [3] did it give?
Its IC50 is 90 µM.

With `O=C(NCc1ccc(Cl)cc1Cl)c1ccc2cccnc2c1O` as the compound, how does the IC50 [2] read?
Its IC50 is 5.2 µM.

`CCCCCCCCCCNC(=O)c1ccc2cccnc2c1O` was tested. Which IC50 [2] did it give?
Its IC50 is 7.1 µM.

How did the IC50 (Table 13, read-out: IC50) turn out when `O=C(NCc1ccc(Cl)cc1)c1cc([N+](=O)[O-])c2cccnc2c1O` was run?
The IC50 was 2.6 µM.

For `COC(=O)[C@H](Cc1ccccc1)Nc1nnc(NC(=O)c2ccc3cccnc3c2O)s1`, which IC50 [1] is on record?
Its IC50 is 15.4 µM.

With `O=C(NCCc1ccc(Cl)cc1)c1ccc2cccnc2c1O` as the compound, how does the IC50 [2] read?
The IC50 was 6.7 µM.

How did the IC50 [2] turn out when `CC1CCCCC1NC(=O)c1ccc2cccnc2c1O` (centres unmarked) was run?
The IC50 was < 3.1 µM and > 10 µM.

For `CCCCNc1nnc(NC(=O)c2ccc3cccnc3c2O)s1`, which IC50 [1] is on record?
Its IC50 is 2.5 µM.

With `O=C(NCc1ccccc1Sc1ccccc1CO)c1ccc2cccnc2c1O` as the compound, how does the IC50 [2] read?
The IC50 was 9.4 µM.

`O=C(Nc1ccc(Br)cn1)c1ccc2cccnc2c1O` was tested. Which IC50 [3] did it give?
The IC50 was 21.6 µM.

Which IC50 [3] does the source give for `O=C(Nc1cccc(F)c1)c1ccc2cccnc2c1O` here?
Its IC50 is 16.9 µM.

With `Cc1ccc(CCNC(=O)c2ccc3cccnc3c2O)cc1` as the compound, how does the IC50 [2] read?
The IC50 was 16.8 µM.

How did the IC50 [3] turn out when `O=C(Nc1ccccc1F)c1ccc2cccnc2c1O` was run?
The IC50 was 27.3 µM.

For `O=C(NCc1cc(Cl)cc(Cl)c1)c1ccc2cccnc2c1O`, which IC50 (Table 14, read-out: IC50) is on record?
Its IC50 is 27 µM.

For `O=C(Nc1cccc2cccnc12)c1ccc2cccnc2c1O`, which IC50 [3] is on record?
Its IC50 is 10.3 µM.
